Source: US9120749B2, “Quinoline derivatives and MELK inhibitors containing the same” (ONCOTHERAPY SCIENCE, INC., priority 2010, dated 2015)
Structures can show the parent of a compound that is named as a salt.

Legend:
MELK = MELK (Homo sapiens, UniProt Q14680); experiment: Kinase assay: MELK activity, phosphorylation of FITC-labeled histone H3 peptide measured by IMAP fluorescence polarization; type: biochemical; conditions: 50 micro-M ATP, FITC-labeled histone H3 peptide substrate, IMAP fluorescence polarization; read-out: IC50 (μM) (kinase assay)
Sequence of MELK (Q14680 whole entry, looked up): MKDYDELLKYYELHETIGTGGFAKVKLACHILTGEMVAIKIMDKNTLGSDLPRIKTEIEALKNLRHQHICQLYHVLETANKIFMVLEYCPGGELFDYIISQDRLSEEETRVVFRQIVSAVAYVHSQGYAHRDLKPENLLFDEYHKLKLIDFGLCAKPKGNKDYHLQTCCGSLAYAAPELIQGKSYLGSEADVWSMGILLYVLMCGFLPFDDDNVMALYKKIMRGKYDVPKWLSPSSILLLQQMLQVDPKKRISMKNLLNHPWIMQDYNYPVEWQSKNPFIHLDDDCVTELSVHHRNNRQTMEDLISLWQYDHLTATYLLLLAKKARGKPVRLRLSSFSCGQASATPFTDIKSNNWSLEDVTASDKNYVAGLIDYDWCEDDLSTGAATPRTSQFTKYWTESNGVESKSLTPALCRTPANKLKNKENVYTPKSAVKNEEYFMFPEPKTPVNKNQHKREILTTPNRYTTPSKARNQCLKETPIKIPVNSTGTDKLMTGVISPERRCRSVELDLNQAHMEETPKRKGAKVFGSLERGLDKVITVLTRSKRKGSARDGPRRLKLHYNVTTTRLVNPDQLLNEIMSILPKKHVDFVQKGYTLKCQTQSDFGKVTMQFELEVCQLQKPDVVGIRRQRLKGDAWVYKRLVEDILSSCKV
Procedure, shortened: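 A FITC-labelled histone H3 peptide served as substrate, with compounds serially diluted to 1% DMSO final. Reactions were stopped with three volumes of IMAP progressive binding solution. After 0.5 h at room temperature, fluorescence polarization was read.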

T47D cells = experiment: Cell-based assay: anti-proliferative activity, Cell Counting Kit-8, 72 hours (T47D); conditions: Homo sapiens, T47D, 72 h, MELK-expressing, Cell Counting Kit-8 at 72 hours
Procedure, shortened: (§1)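 T47D, A549 and BT-549 cells, with MELK-negative HT-1197 as control (MELK status checked by western blot), seeded at 2,000–3,000 cells/well. Growth measured by CCK-8 72 hours after inhibitor exposure; IC50 values calculated.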

A549 cells = experiment: Cell-based assay: anti-proliferative activity, Cell Counting Kit-8, 72 hours (A549); conditions: Homo sapiens, A549, 72 h, MELK-expressing, Cell Counting Kit-8 at 72 hours
Procedure, shortened: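 Cell Counting Kit-8 read-out of A549 growth after 72 hours of inhibitor exposure, cells plated in 96-well format. Values reported as IC50.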

BT-549 cells = experiment: Cell-based assay: anti-proliferative activity, Cell Counting Kit-8, 72 hours (BT-549); conditions: Homo sapiens, BT-549, 72 h, BT549 cells, MELK-expressing; Cell Counting Kit-8 at 72 hours
Description: To evaluate the expression status of MELK in several cell lines, western blot analysis was performed using crude cell lysate collected from those cells. Anti-MELK antibody (clone 31, BD Biosciences) was used to visualize the expression.
Active candidate inhibitors against MELK were evaluated for their target-specific cytotoxicity using T47D, A549, BT-549, and HT-1197 cells was used for negative control. 100 micro-L of cell suspension was seeded onto 96-well microtiter plate (ViewPlate-96FTC, PerkinElmer). The initial cell concentration of T47D, A549, BT-549, and HT-1197 were 3,000 cells/well, 2,000 cells/well and 2,500 cells/well, respectively. Cellular growth was determined using Cell Counting Kit-8 (DOJINDO) at 72 hours after the exposure of the candidate inhibitors. […] Accurate IC50 values were calculated as described previously.

HT-1197 cells = experiment: Cell-based assay: anti-proliferative activity, Cell Counting Kit-8, 72 hours (HT-1197, negative control without MELK expression); conditions: Homo sapiens, HT1197, 72 h, HT1197 cells, no MELK expression (negative control); Cell Counting Kit-8 at 72 hours
Procedure, shortened: as §1

Compound	IC50 (MELK) [µM]	IC50 (T47D cells) [µM]	IC50 (A549 cells) [µM]	IC50 (BT-549 cells) [µM]	IC50 (HT-1197 cells) [µM]
CC(C1CCN(c2c(S(C)(=O)=O)cnc3ccc(-c4ccc(O)c(Cl)c4)cc23)CC1)N(C)C (stereo not shown) [Example 246, 2-Chloro-4-[4-{4-[1-(dimethylamino)ethyl]piperidin-1-yl}-3-(methylsulfonyl)quinolin-6-yl]phenol]	0.01	0.18	0.35	0.72	1.2
COc1cc(-c2ccc3ncc(C(=O)C4CC4)c(NC4CCN(C)CC4)c3c2)cc(Cl)c1O [Example 249]	0.0079	0.83	0.3	1.3	4.4
COc1cc(-c2ccc3ncc(C(=O)C4CC4)c(N4CCC(C(C)N(C)C)CC4)c3c2)cc(Cl)c1O (stereo not shown) [Example 250, [6-(3-Chloro-4-hydroxy-5-methoxyphenyl)-4-{4-[1-(dimethylamino)ethyl]piperidin-1-yl}quinolin-3-yl](cyclopropyl)methanone]	0.0013	0.16	0.11	0.61	1.7
COc1cc(-c2ccc3ncc(C(=O)C4CC4)c(N[C@H]4CC[C@H](N(C)C)CC4)c3c2)cc(Cl)c1O [Example 255, {6-(3-Chloro-4-hydroxy-5-methoxyphenyl)-4-[trans-4-(dimethylamino)cyclohexylamino]quinolin-3-yl}(cyclopropyl)methanone]	0.0019	0.28	0.18	0.64	1.9
CC(=O)c1cnc2ccc(-c3cc(Cl)c(O)c(Cl)c3)cc2c1N[C@H]1CC[C@H](N)CC1 [Example 256, 1-{4-[trans-4-Aminocyclohexylamino]-6-(3,5-dichloro-4-hydroxyphenyl)quinolin-3-yl}ethanone]	0.0041	0.064	0.44	0.31	100
CC(=O)c1cnc2ccc(-c3cc(F)c(O)c(F)c3)cc2c1N[C@H]1CC[C@H](N)CC1 [Example 258, 1-{4-[trans-4-Aminocyclohexylamino]-6-(3,5-difluoro-4-hydroxyphenyl)quinolin-3-yl}ethanone]	0.04	0.071	0.85	0.16	100
COc1cc(-c2ccc3ncc(C(C)=O)c(N[C@H]4CC[C@H](N)CC4)c3c2)cc(Cl)c1O [Example 259, 1-{4-[trans-4-Aminocyclohexylamino]-6-(3-chloro-4-hydroxy-5-methoxyphenyl)quinolin-3-yl}ethanone]	0.0024	0.057	0.099	0.43	2.5
COc1cc(-c2ccc3ncc(C(=O)CC(C)C)c(N[C@H]4CC[C@H](N)CC4)c3c2)cc(Cl)c1O [Example 262, dihydrochloride]	0.005	0.13	0.36	0.91	2.2
CN(C)[C@H]1CC[C@H](Nc2c(C(=O)C3CC3)cnc3ccc(-c4cc(Cl)c(O)c(Cl)c4)cc23)CC1 [Example 263, Cyclopropyl{6-(3,5-dichloro-4-hydroxyphenyl)-4-[trans-4-(dimethylamino)cyclohexylamino]quinolin-3-yl}methanone]	0.0017	0.13	0.2	0.41	1.2
COc1cc(-c2ccc3ncc(C(=O)C4CC4)c(N[C@H]4CC[C@H](N(C)C)CC4)c3c2)ccc1O [Example 266, Cyclopropyl(4-((trans)-4-(dimethylamino)cyclohexylamino)-6-(4-hydroxy-3-methoxyphenyl)quinolin-3-yl)methanone]	0.0016	0.29	0.37	0.94	3
CC(C)CC(=O)c1cnc2ccc(-c3cc(Cl)c(O)c(Cl)c3)cc2c1N[C@H]1CC[C@H](N)CC1 [Example 267, 1-{4-[trans-4-Aminocyclohexylamino]-6-(3,5-dichloro-4-hydroxyphenyl)quinolin-3-yl}-3-methylbutan-1-one dihydrochloride]	0.0022	0.14	0.38	0.72	3
